Test results reported in patent US20240335465A1 (University of Virginia Patent Foundation, priority 2021, published 2024).

Assays:
DDR signaling [1] = assay: DDR signaling immunoblotting in primary mouse embryonic fibroblasts; conditions: for DDR signaling (γH2AX): cGAS−/− and cGAS GS198AA primary MEFs vs WT
DDR signaling [2] = assay: DDR signaling immunoblotting in THP1 cells; conditions: for DDR induction in cells lacking STING or TBK1: STING−/− or shTBK1 cells
cGAMP = assay: 2′3′-cGAMP ELISA in THP1 cells; type: cell-based, human; conditions: WT THP1, 1 μM Doxorubicin, 1 hr
cGAS = assay: HA-cGAS co-immunoprecipitation in HA-cGAS-reconstituted cGAS−/− MEFs; type: cell-based, mouse; conditions: doxorubicin 2 μM 6 hours
Experimental: Immunoprecipitation: Cells were treated as indicated and were lysed in RIPA buffer. Co-immunoprecipitation experiments were conducted using Dynabeads™ Protein G Immunoprecipitation Kits (Thermo Fisher, Catalogue #10007D) as per the manufacturer's protocol. 50 μl of Dynabead slurry was added to a microfuge tube and placed on a magnet to separate the solution. Beads were washed in 200 μl PBS with 0.1% Tween20 (3 times) before 5 μg antibody along with […] protein lysate diluted in PBS-tween20 to a final volume of 500 μl was added to the beads and incubated overnight at 4° C. with rotation. Beads were collected by magnetic separation and washed 3 times with wash buffer (10 mM Tris; adjust to pH 7.4, 1 mM EDTA; pH 8.0, 150 mM NaCl). Finally, bead-bound proteins were eluted by boiling in 1× Laemmli buffer and samples analyzed by western blotting.

Crassostrea virginica = assay: DDR in oysters after adductor muscle injection; type: in vivo; conditions: hemocytes; cGAMP 25 μg/50 gm, doxorubicin 1 μg/50 gm oyster weight, 16 hours
Experimental: Oysters: Wild adult eastern oysters (Crassostrea virginica) of both male and female sexes ranging from 2 cm-7 cm in length (1 to 3 years in age) were collected from a natural oyster reef on Virgnia's Eastern Shore. Following collection, the diploid oysters were placed on ice and transported approximately 3 h to the University of Virginia main campus in Charlottesville, VA. There they were stored in an aerated aquarium containing water supplemented with Instant Ocean® Aquarium Sea Salt (50 gm/l). […] Treated oysters were kept at 4° C. in the dark for 16 hours after which they were shucked, had their hemolymph/tissues harvested for analysis by western blotting, and dead oyster and shell were disposed of.

cGAS, STING, and TBK1 = conditions: doxorubicin 2 μM 6 hours; cGAMP 16 hours
Experimental: Cell Fractionation: THP1 cells were treated as indicated, then nuclear and cytoplasmic fractions were isolated using NE-PER™ Nuclear and Cytoplasmic Extraction Reagents (Thermo Scientific, Catalogue #78833) following the manufacturer's protocol. 20 g of cytoplasmic and nuclear proteins were used for immunoblotting.

γH2AX = γH2AX immunofluorescence (human RPE, THP1 cells); type: cell-based
Experimental: Immunofluorescence Staining: 16,500 adherent cells/cm^2 were plated on a gelatin coated 8-chamber slide (VWR, Catalogue #62407-296) and treated as indicated. Media was removed and cells were washed with 1×PBS with Ca^2+/Mg^2+ and fixed with 4% PFA for 20 minutes. Fixed cells were permeabilized with PBS+0.1% Triton-X and washed 3 times with PBS+0.1% Tween20. After treatment as indicated, non-adherent THP1 cells were collected by centrifugation, washed in cold PBS and fixed in PFA. Post-fixation, they were washed with PBS, spotted on gelatin coated “PTFE” Printed Slides (Electron Microscopy Sciences, Cat #63424-06), and air-dried. For γH2AX staining, permeabilized cells were blocked in Serum-free DAKO Protein Block (Agilent, Catalogue #X0909) for 1 hr at room temperature. Cells were incubated in primary antibody (γH2AX, 1:500; anti-HA, 1:100; Table 1) in DAKO antibody diluent at 4° C. overnight on a rocker platform. U2OS-STING cells undergoing Rad51 staining were first fixed in methanol for 20 minutes in −20° C., blocked for 1 hr with donkey block (2% normal donkey serum, 1% BSA, 0.1% Triton X 100, 0.05% Tween20, 0.05% Sodium Azide in PBS), then finally incubated in an anti-Rad51 antibody overnight at 4° C. (Bio-academia Cat #70-001, 1:6000 in 5% milk in TBST). For RPA70 staining, cells were fixed in 4% PFA at room temperature for 20 minutes and blocked in Cell Signaling blocking buffer (1×PBS/5% normal donkey serum/0.3% Triton™ X-100) for 1 hr in room temperature then incubated in an RPA70 antibody (Cell Signaling Cat #2267, 1:50 in blocking buffer) overnight at 4° C. Primary antibody was washed 3 times and incubated with secondary antibodies (Invitrogen, Alexa 555, 488) for 1 hr at room temperature. Coverslips were mounted on the cells with ProLong™ Gold Antifade mounting media with DAPI (Thermofisher, Catalogue #P36935). All images were obtained by confocal microscopy (Nikon, C2).

Nematostella vectensis = assay: DDR in starlet sea anemones; type: in vivo; conditions: whole animals; cGAMP in digitonin solution 10 minutes; doxorubicin 2 μM; 16 hours
Source text: Starlet sea anemones: Wild type, laboratory maintained, Self-sustaining Nematostella vectensis culture containing of 3-6 months old male and female animals (Putnam et al., 2007) was a kind gift from Timothy J. Jegla (Penn State University Department of Biology). They were maintained in 6-well plates containing water with Instant Ocean® Aquarium Sea Salt (50 gm/l) and fed brine shrimp. […] Permeabilization solution was removed and the animals returned to maintenance sea salt water. Doxorubicin was added to the maintenance sea salt water to a final concentration of 2 μM. 16 hours post treatment. N. vectensis were collected and washed once with cold PBS before the addition of 200 μl RIPA buffer. Samples were homogenized by sonication and centrifuged at 4° C. to remove debris. Soluble lysates were quantified for protein analysis by western blot.

U2OS-STING cells = assay: RAD51 and RPA70 foci in EdU+ U2OS-STING cells; type: cell-based, human; conditions: EdU-positive S-phase cells, Camptothecin 5 μM 16 hours
Experimental: Immunofluorescence Staining: 16,500 adherent cells/cm^2 were plated on a gelatin coated 8-chamber slide (VWR, Catalogue #62407-296) and treated as indicated. Media was removed and cells were washed with 1×PBS with Ca^2+/Mg^2+ and fixed with 4% PFA for 20 minutes. Fixed cells were permeabilized with PBS+0.1% Triton-X and washed 3 times with PBS+0.1% Tween20. After treatment as indicated, non-adherent THP1 cells were collected by centrifugation, washed in cold PBS and fixed in PFA. Post-fixation, they were washed with PBS, spotted on gelatin coated “PTFE” Printed Slides (Electron Microscopy Sciences, Cat #63424-06), and air-dried. For γH2AX staining, permeabilized cells were blocked in Serum-free DAKO Protein Block (Agilent, Catalogue #X0909) for 1 hr at room temperature. Cells were incubated in primary antibody (γH2AX, 1:500; anti-HA, 1:100; Table 1) in DAKO antibody diluent at 4° C. overnight on a rocker platform. […]
EdU incorporated cells were detected by confocal microscopy after Click-iT® EdU labeling following the manufacturer's protocol (Click-iT™ EdU Alexa Fluor™ 594 Imaging Kit, Thermo Fisher Cat #C10339).

cell cycle progression = assay: Cell cycle analysis by flow cytometry (BrdU, propidium iodide); type: cell-based, human
Experimental: Cells were washed with cold PBS and resuspended in 0.5 ml PBS to achieve a single cell suspension. Cells were fixed in a tube containing 4.5 ml 70% ethanol kept at 4° C. overnight. Cells were collected by centrifugation at 500 g for 5 minutes and washed twice with PBS. Washed cells were then stained with 1 ml of freshly prepared staining solution containing propidium iodide (10 μg/ml), DNase-free RNaseA (100 μg/ml), and 0.1% (v/v) Triton X-100 before being subjected to flow cytometry measurement. To determine percentage of cell population in various cell cycle stage, ˜10,000-30,000 cells were acquired on an Attune NxT cytometer and analyzed using FCS Express software. Cell cycle analysis was performed on propidium iodide stained cells and single cell events were determined by gating on the area against the width of the propidium iodide pulse signal. DNA cell cycle modeling and fit was performed using the Multicycle AV plugin (Phoenix Flow Systems).
Cells were fixed and stained to detect BrdU incorporation by flow cytometry following the manufacturer's protocol (FITC BrdU Flow Kit, BD Biosciences, Cat #559619).

PARP = PARP activity assay; type: cell-based, human
Experimental: Post cGAMP treatment, cells were collected by centrifugation and washed with cold PBS once and resuspended in Cell Extraction Buffer. PARP activity was measured using the Chemiluminescent Assay Kit (R&D, Catalog Number: 4685-096-K) following manufacturer's protocol.

HEK293-TrLR cells = assay: HDR and NHEJ assay using Traffic Light Reporter; type: cell-based, human
Experimental: TrLR-integrated HEK293 cells were selected through exposure to 5 μg/ml puromycin for 2 weeks. […] 8 hours following this procedure, cells were transfected with pCVL SFFV d14GFP Donor (Addgene Cat #31475), pCBASceI (Addgene Cat #26477)), or Donor+SceI using Lipofectamine 3000. 72 hours post-transfection, cells were trypsinized, collected, and analyzed with an Attune NxT flow cytometer (Thermofisher). To quantify the DNA repair events, ˜10,000-30,000 cells were acquired on an Attune NxT cytometer and analyzed using FCS Express software. Single cell events were determined by gating on the area against the width of the forward scatter pulse signal. Debris removal was performed by excluding events with very low forward and side scatter. For determining % of GFP and mCherry positive cells we established positive and negative populations using mock transfections as negative controls and GFP or mCherry transfected samples as Fluorescence Minus One controls.

ATM = ATM (Homo sapiens, UniProt Q13315); conditions: recombinant ATM and TBK1; 25 μM ATM inhibitor, 10 μM TBK1 inhibitor
Experimental: 2× laemmli buffer was added and the mixture which was then incubated at 98° C. for 10 mins. The protein mixtures were separated on a 7.5% SDS/PAGE gel and immunoblotted for anti phospho-ATM (Ser1981) antibody to assess phosphorylation status if ATM. To test the effect of inhibitors on recombinant TBK1 mediated ATM phosphorylation, 25 μM ATM inhibitor, and 10 μM TBK1 inhibitor and was pre-incubated with recombinant ATM or recombinant TBK1 (TBK1 inhibitor) before setting up the kinase assay as described above.

PARylation = assay: PolyADP-ribosylation (PARylation) immunoblot; type: cell-based, human; conditions: THP1, 2 mM NAM 18 hours, 250 μM H2O2 10 minutes
Source text: Cells were collected by centrifugation, washed once with ice-cold PBS, lysed in RIPA buffer and analyzed by western blot to detect PARylation using pADPr Antibody (Santa Cruz sc-56198).

NAD^+ = assay: NAD+ quantification; type: cell-based, human; conditions: THP1, 2 mM, 4 mM and 8 mM NAM, 18 hours
DDR signaling [3] = assay: DDR signaling immunoblot in HEK293 cells; type: cell-based, human; conditions: HEK293, 2 μM KU-55933 1 hr, cGAMP 16 hours

Sequence of ATM (Q13315 whole entry): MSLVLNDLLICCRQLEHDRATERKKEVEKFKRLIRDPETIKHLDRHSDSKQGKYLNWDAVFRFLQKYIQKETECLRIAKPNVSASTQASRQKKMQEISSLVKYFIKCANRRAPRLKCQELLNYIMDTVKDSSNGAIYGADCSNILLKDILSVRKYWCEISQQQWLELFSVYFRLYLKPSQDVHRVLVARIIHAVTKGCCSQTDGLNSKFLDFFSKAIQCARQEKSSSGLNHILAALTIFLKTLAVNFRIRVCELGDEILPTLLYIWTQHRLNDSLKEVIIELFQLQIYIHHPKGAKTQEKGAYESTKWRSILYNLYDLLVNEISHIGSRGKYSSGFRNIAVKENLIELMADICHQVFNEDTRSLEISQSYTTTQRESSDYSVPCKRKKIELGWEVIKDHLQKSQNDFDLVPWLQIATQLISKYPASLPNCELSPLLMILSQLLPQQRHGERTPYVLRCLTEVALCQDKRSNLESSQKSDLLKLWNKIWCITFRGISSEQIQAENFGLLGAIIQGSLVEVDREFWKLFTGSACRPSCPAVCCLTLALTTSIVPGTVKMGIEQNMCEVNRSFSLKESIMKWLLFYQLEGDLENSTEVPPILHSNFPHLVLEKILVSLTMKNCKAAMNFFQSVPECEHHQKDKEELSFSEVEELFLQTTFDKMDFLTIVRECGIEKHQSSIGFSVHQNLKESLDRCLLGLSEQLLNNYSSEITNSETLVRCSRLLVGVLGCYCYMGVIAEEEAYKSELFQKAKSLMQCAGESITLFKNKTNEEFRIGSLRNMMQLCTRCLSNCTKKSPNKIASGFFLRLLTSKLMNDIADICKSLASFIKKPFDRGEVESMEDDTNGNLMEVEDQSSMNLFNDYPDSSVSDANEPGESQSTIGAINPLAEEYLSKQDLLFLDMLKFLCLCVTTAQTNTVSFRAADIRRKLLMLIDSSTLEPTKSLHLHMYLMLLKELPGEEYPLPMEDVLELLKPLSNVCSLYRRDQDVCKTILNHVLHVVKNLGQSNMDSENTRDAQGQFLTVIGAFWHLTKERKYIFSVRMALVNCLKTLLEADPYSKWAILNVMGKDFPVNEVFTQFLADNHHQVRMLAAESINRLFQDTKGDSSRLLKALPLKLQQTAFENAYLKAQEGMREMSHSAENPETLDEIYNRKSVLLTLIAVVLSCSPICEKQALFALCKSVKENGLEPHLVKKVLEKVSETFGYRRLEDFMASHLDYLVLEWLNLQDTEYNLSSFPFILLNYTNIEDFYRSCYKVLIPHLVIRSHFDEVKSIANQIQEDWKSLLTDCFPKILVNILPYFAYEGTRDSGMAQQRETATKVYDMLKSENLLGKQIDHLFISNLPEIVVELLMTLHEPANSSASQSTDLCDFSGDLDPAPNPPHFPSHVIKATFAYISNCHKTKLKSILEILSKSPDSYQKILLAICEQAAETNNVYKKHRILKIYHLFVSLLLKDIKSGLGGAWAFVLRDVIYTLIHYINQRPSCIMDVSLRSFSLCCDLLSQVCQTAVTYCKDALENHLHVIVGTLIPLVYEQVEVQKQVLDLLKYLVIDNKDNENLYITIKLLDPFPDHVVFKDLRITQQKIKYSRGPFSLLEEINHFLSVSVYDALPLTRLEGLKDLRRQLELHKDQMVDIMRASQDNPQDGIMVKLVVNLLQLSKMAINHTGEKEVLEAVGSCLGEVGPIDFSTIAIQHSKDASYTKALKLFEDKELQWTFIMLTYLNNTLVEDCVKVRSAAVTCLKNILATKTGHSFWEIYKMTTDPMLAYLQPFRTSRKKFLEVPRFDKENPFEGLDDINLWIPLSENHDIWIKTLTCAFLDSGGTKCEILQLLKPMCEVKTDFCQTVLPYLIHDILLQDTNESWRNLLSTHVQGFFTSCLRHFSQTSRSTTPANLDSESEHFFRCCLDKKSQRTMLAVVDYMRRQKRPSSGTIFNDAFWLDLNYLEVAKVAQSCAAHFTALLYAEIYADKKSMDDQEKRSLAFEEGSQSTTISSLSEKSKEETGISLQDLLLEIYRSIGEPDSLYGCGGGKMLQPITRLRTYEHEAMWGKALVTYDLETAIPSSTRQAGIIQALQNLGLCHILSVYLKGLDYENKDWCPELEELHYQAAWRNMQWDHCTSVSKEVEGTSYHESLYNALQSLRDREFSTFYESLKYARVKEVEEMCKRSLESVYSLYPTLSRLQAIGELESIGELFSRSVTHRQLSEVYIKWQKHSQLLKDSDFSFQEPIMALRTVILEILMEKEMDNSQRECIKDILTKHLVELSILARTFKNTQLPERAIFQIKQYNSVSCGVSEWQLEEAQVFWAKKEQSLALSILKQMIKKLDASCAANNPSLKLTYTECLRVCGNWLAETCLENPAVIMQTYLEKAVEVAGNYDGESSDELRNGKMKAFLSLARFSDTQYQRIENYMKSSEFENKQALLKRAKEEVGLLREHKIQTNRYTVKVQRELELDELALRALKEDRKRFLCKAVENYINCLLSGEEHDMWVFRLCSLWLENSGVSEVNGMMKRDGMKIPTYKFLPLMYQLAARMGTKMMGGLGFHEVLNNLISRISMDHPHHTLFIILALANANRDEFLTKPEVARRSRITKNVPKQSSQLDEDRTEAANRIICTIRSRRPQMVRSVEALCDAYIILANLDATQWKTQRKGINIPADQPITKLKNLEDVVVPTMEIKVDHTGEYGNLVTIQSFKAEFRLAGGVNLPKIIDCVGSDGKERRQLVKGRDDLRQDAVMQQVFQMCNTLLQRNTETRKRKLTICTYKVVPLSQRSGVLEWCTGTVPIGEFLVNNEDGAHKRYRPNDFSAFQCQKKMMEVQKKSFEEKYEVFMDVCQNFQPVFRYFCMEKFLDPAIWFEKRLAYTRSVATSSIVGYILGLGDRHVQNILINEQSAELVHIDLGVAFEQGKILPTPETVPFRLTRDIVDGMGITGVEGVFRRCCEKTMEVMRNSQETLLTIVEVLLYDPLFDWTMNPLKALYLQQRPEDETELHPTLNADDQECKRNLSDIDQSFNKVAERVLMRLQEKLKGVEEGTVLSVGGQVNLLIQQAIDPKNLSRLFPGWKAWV

For `COc1cccc2c1C(=O)c1c(O)c3c(c(O)c1C2=O)C[C@@](O)(C(=O)CO)C[C@@H]3O[C@H]1C[C@H](N)[C@H](O)[C@H](C)O1` [doxorubicin], the “DDR signaling (γH2AX)” value (DDR signaling [1]) was “suppressed both in cGAS^−/− and cGAS^(GS198AA) primary MEFs”, the “DDR induction in cells lacking STING or TBK1” value (DDR signaling [2]) was “abrogated” and the cGAMP production (cGAMP) was “reacted by producing cGAMP”. For the same compound, the “cGAS association with ATM” value (cGAS) was “detected no such interactions”, the “cGAS complex with γH2AX” value (cGAS) was “nuclear translocated cGAS was found in a complex with γH2AX” and the “TBK1 phosphorylation (pTBK1)” value (Crassostrea virginica) was “TBK1 phosphorylation”. For the same compound, the γH2AX (Crassostrea virginica) was “elevated levels of γH2AX”, the “nuclear enrichment of TBK1, pTBK1, STING” value (cGAS, STING, and TBK1) was “promoted nuclear enrichment of TBK1 but not STING” and the “nuclear enrichment of cGAS” value (cGAS, STING, and TBK1) was “nuclear enrichment of cGAS”. For the same compound, the “γH2AX foci in cGAS- and STING-deficient cells” value (γH2AX; doxorubicin-treated THP1 cells) was “significant reduction in the intensity of γH2AX foci”, the γH2AX staining pattern (γH2AX; human RPE cells, doxorubicin 2 hours, cGAMP or HT-DNA 6 hours) was “catalyzed the formation of γH2AX foci characteristic of DSB induction” and the “TBK1 phosphorylation (pTBK1)” value (Nematostella vectensis) was “TBK1 phosphorylation”. For the same compound, the γH2AX (Nematostella vectensis) was “elevated levels of γH2AX”.
In the case of `CNCc1ccc(-c2[nH]c3cc(F)cc4c3c2CCNC4=O)cc1` [rucaparib], the “DNA damage-induced RAD51 and RPA foci formation” value (U2OS-STING cells) is reported as “suppressed DNA damage-induced RAD51 and RPA foci formation in EdU-positive S-phase cells”, the “abundance of S/G2-phase cells” value (cell cycle progression; THP1 10 μM Rucaparib (propidium iodide), U2OS-STING (EdU)) is reported as “causes increased abundance of S/G2-phase cells” and the “PARP enzymatic activity in cell lysates” value (PARP; THP1, cGAMP 6 hours, Rucaparib 10 μM, 6 hr) is reported as “lower PARP enzymatic activity”. The HDR (HEK293-TrLR cells; 1 μM PARP inhibitor (Rucaparib)) was “significantly reduced HDR in TrLR reporter cells”.
In the case of `CC[C@@]1(O)C(=O)OCc2c1cc1n(c2=O)Cc2cc3ccccc3nc2-1` [camptothecin], the “DDR signaling (γH2AX)” value (DDR signaling [1]) is reported as “suppressed both in cGAS^−/− and cGAS^(GS198AA) primary MEFs”, the “DDR induction in cells lacking STING or TBK1” value (DDR signaling [2]) is reported as “abrogated” and the “phosphorylation of H2AX, ATM, and CHK2” value (DDR signaling [2]; cGAS−/− THP1, camptothecin 2 μM 4 hours) is reported as “all suppressed”.
In the case of Pam3CSK4, the “DDR activation (γH2AX)” value (DDR signaling [1]; WT primary MEF, Pam3CSK4 500 ng/ml 6 hours, HT-DNA 4 ug/6-well 6 hours, 5′ppp-dsRNA 0.5 μg/6 well 6 hours, cGAMP 16 hours) is reported as “failed to stimulate the DDR”.
For `O=C(NCCCNc1nc(Nc2cccc(CN3CCOCC3)c2)ncc1C1CC1)C1CCC1` [MRT67307], the “effect on cGAMP-induced phosphorylation of ATM (S1981), CHK2, and H2AX” value (DDR signaling [2]; THP1 pretreated with 2 μM TBK1 inhibitor, cGAMP 16 hours) was “suppressed cGAMP-induced phosphorylation of ATM (S1981), CHK2, and H2AX” and the “ATM phosphorylation on Ser1981” value (ATM) was “suppressed”.
With `NC(=O)c1cccnc1` [nicotinamide] the “effect on cGAMP-driven inhibition of protein PARylation” value (PARylation) was “abrogated cGAMP-driven inhibition of protein PARylation and HDR”, the “effect on cGAMP-driven inhibition of cellular PARP enzymatic activity” value (PARP; THP1, 2 mM, 4 mM and 8 mM NAM, 18 hours) was “overcame cGAMP-driven inhibition of cellular PARP enzymatic activity” and the “cellular NAD^+ levels with nicotinamide supplementation” value (NAD^+) was “Boosting cellular NAD^+ levels”. For the same compound, the “effect on cGAMP-driven inhibition of HDR” value (HEK293-TrLR cells; 2 mM and 4 mM NAM) was “abrogated cGAMP-driven inhibition of protein PARylation and HDR”.
`O=c1cc(-c2cccc3c2Sc2ccccc2S3)oc(N2CCOCC2)c1` [KU55933] was tested, and the “effect on cGAMP-induced γH2AX and pCHK2” value (DDR signaling [3]) was “suppressed the ability of cGAMP to induce γH2AX and pCHK2”, the “effect of ATM inhibitor on cGAMP-induced G1 arrest” value (cell cycle progression; WT THP1, 25 μM KU-55933, cGAMP 24 hours) was “suppressed the ability of cGAMP to induce γH2AX and pCHK2 (FIG. 9A) and to induce G1 arrest” and the “ATM phosphorylation on Ser1981” value (ATM) was “suppressed”. For the same compound, the “HDR under ATM inhibition alone” value (HEK293-TrLR cells; 25 μM KU-55933) was “impeded HDR in its own right”.
